Measured values published in patent US7592336B2, “Hepatitis C virus inhibitors” (Bristol-Myers Squibb Company, priority 2005, dated 2009).
pEC50: −log10 of the molar value. Where two headings read alike, the source gives them in different places.

Test system: HCV replicon in HUH-7 cells
Test: HCV replicon FRET assay
Assay type: cell-based, HCV strain 1b
Settings: Hepatitis C virus
Text: An HCV replicon whole cell system was established as described by Lohmann V, Korner F, Koch J, Herian U, Theilmann L, Bartenschlager R., Science 285(5424):110-3 (1999). This system enabled us to evaluate the effects of our HCV Protease compounds on HCV RNA replication. Briefly, using the HCV strain 1b sequence described in the Lohmann paper (Assession number: AJ238799), an HCV cDNA was synthesized by Operon Technologies, Inc. (Alameda, Calif.), and the full-length replicon was then assembled in plasmid pGem9zf(+) (Promega, Madison, Wis.) using standard molecular biology techniques. The replicon consists of (i) the HCV 5′ UTR fused to the first 12 amino acids of the capsid protein, (ii) the neomycin phosphotransferase gene (neo), (iii) the IRES from encephalomyocarditis virus (EMCV), and (iv) HCV NS3 to NS5B genes and the HCV 3′ UTR. Plasmid DNAs were linearized with ScaI and RNA transcripts were synthesized in vitro using the T7 MegaScript transcription kit (Ambion, Austin, Tex.) according to manufacturer's directions. In vitro transcripts of the cDNA were transfected into the human hepatoma cell line, HUH-7. […] Resulting cell lines were characterized for positive and negative strand RNA production and protein production over time.
The HCV replicon FRET assay was developed to monitor the inhibitory effects of compounds described in the disclosure on HCV viral replication. HUH-7 cells, constitutively expressing the HCV replicon, were grown in Dulbecco's Modified Eagle Media (DMEM) (Gibco-BRL) containing 10% Fetal calf serum (FCS) (Sigma) and 1 mg/ml G418 (Gibco-BRL). Cells were seeded the night before (1.5×10^4 cells/well) in 96-well tissue-culture sterile plates. Compound and no compound controls were prepared in DMEM containing 4% FCS, 1:100 Penicillin/Streptomysin (Gibco-BRL), 1:100 L-glutamine and 5% DMSO in the dilution plate (0.5% DMSO final concentration in the assay). Compound/DMSO mixes were added to the cells and incubated for 4 days at 37° C. After 4 days, cells were first assessed for cytotoxicity using alamar Blue (Trek Diagnotstic Systems) for a CC50 reading. The toxicity of compound (CC50) was determined by adding 1/10th volume of alamar Blue to the media incubating the cells. After 4 h, the fluorescence signal from each well was read, with an excitation wavelength at 530 nm and an emission wavelength of 580 nm, using the Cytofluor Series 4000 (Perspective Biosystems). Plates were then rinsed thoroughly with Phosphate-Buffered Saline (PBS) (3 times 150 μl). The cells were lysed with 25 μl of a lysis assay reagent containing an HCV protease substrate (5× cell Luciferase cell culture lysis reagent (Promega #E153A) diluted to 1× with distilled water, NaCl added to 150 mM final, the FRET peptide substrate (as described for the enzyme assay above) diluted to 10 μM final from a 2 mM stock in 100% DMSO. […]. The plate was then placed into the Cytofluor 4000 instrument which had been set to 340 nm excitation/490 nm emission, automatic mode for 21 cycles and the plate read in a kinetic mode. EC50 determinations were carried out as described for the IC50 determinations.

C=C[C@@H]1C[C@]1(NC(=O)[C@@H]1C[C@@](O)(c2ccc(-c3ccccc3)cc2)CN1C(=O)[C@@H](NC(=O)OC(C)(C)C)C(C)(C)C)C(=O)NS(=O)(=O)C1CC1 [Compound 3]
pEC50 (96 h, HUH-7 replicon cells, 4 days, read-out: EC50 in the replicon FRET assay): 7.55 | pEC50 (Huh-7, HCV replicon cell assay, read-out: Activity Range (EC50)): 6.00 to 8.00
